Source: patent US7041698B2, “Hepatitis C virus inhibitors” (Bristol-Myers Squibb Company, priority 2002, dated 2006)

Experiments:
NS3/4A BMS strain = target: T1, NS3/4A BMS strain (UniProt P27958, C1454S/C1711G, species not given/STRAIN_BMS); assay: Recombinant HCV NS3/4A protease complex FRET peptide assay, BMS strain; type: biochemical, HCV genotype 1a; conditions: read-out: IC50 against the NS3/4A BMS strain in the enzyme assay
T1 construct: fused on or other part: Three-lysine solubilising tail at the C-terminus of NS4A
Description: (§1) Recombinant HCV NS3/4A Protease Complex FRET Peptide Assay
(§2) The purpose of this in vitro assay was to measure the inhibition of HCV NS3 protease complexes, derived from the BMS, H77C or J416S strains, as described below, by compounds of the present invention. This assay provides an indication of how effective compounds of the present invention would be in inhibiting HCV proteolytic activity.
(§3) Serum from an HCV-infected patient was obtained from Dr. T. Wright, San Francisco Hospital. An engineered full-length cDNA (compliment deoxyribonucleic acid) template of the HCV genome (BMS strain) was constructed from DNA fragments obtained by reverse transcription-PCR (RT-PCR) of serum RNA (ribonucleic acid) and using primers selected on the basis of homology between other genotype 1a strains. From the determination of the entire genome sequence, a genotype 1a was assigned to the HCV isolate according to the classification of Simmonds et al. (See P Simmonds, K A Rose, S Graham, S W Chan, F McOmish, B C Dow, E A Follett, P L Yap and H Marsden, J. Clin. Microbiol., 31(6), 1493–1503 (1993)). […]

NS3/4A H77C strain = target: T2, NS3/4A H77C strain (Hepatitis C virus genotype 1a, UniProt P27958, C1454S); assay: Recombinant HCV NS3/4A protease complex FRET peptide assay, H77C strain; type: biochemical, HCV genotype 1a
T2 construct: DNA encoding the recombinant HCV NS3/4A protease complex (amino acids 1027 to 1711) for these strains; His tag (inferred from pET21b vector and Ni-NTA purification); made in house; host or cells: Escherichia coli BL21 (DE3)
Description: as §1, §2, §3

[1] = system: T3, human pancreatic chymotrypsin; assay: Specificity assay, chymotrypsin; type: biochemical; conditions: 2 hr pre-incubation at RT
T3 construct: human pancreatic chymotrypsin
Method: The specificities of compounds of the present invention were determined against a variety of serine proteases: human sputum elastase (HS), porcine pancreatic elastase (PPE) and human pancreatic chymotrypsin and one cysteine protease: human liver cathepsin B. In all cases a 96-well plate format protocol using calorimetric p-nitroaniline (pNA) substrate specific for each enzyme was used as described previously (Patent WO 00/09543) with some modifications to the serine protease assays. All enzymes were purchased from Sigma while the substrates were from Bachem.
Each assay included a 2 hr enzyme-inhibitor pre-incubation at RT followed by addition of substrate and hydrolysis to ˜30% conversion as measured on a Spectramax Pro microplate reader. Compound concentrations varied from 100 to 0.4 μM depending on their potency. […]
The percentage of inhibition was calculated using the formula: [1-((UVinh−UVblank)/(UVctl−UVblank))]×100 […]

NS3/4A J4L6S strain = target: T4, NS3/4A J4L6S strain (Hepatitis C virus genotype 1b, UniProt O92972, C1454S/C1711G); assay: Recombinant HCV NS3/4A protease complex FRET peptide assay, J4L6S strain; type: biochemical, HCV genotype 1b
T4 construct: DNA encoding the recombinant HCV NS3/4A protease complex (amino acids 1027 to 1711) for these strains; His tag (inferred from pET21b vector and Ni-NTA purification); made in house; host or cells: Escherichia coli BL21 (DE3)
Description: as §1, §2, §3

T2 sequence (P27958 1027-1657 C1454S): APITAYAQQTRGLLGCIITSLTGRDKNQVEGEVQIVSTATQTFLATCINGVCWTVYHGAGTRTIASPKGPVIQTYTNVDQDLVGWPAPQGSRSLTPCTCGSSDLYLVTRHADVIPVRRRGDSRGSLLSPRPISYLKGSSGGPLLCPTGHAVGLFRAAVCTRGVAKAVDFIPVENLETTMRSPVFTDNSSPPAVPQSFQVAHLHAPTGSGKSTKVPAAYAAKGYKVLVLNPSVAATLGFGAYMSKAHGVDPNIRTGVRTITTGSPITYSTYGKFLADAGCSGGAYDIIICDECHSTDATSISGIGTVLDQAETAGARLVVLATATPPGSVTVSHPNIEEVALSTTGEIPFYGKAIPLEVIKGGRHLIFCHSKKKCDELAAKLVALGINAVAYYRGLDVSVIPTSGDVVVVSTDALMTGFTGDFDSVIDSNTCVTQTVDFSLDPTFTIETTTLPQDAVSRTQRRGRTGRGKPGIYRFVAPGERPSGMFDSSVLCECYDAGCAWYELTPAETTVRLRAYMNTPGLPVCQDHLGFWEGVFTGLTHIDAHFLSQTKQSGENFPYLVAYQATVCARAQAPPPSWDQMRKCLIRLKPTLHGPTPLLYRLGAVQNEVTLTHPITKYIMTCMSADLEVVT
T2 sequence (P27958 1658-1714 partner, looked up, stated change not applied): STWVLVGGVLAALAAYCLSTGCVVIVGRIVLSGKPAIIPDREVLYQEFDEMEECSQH
T4 sequence (O92972 1027-1711 C1454S/C1711G): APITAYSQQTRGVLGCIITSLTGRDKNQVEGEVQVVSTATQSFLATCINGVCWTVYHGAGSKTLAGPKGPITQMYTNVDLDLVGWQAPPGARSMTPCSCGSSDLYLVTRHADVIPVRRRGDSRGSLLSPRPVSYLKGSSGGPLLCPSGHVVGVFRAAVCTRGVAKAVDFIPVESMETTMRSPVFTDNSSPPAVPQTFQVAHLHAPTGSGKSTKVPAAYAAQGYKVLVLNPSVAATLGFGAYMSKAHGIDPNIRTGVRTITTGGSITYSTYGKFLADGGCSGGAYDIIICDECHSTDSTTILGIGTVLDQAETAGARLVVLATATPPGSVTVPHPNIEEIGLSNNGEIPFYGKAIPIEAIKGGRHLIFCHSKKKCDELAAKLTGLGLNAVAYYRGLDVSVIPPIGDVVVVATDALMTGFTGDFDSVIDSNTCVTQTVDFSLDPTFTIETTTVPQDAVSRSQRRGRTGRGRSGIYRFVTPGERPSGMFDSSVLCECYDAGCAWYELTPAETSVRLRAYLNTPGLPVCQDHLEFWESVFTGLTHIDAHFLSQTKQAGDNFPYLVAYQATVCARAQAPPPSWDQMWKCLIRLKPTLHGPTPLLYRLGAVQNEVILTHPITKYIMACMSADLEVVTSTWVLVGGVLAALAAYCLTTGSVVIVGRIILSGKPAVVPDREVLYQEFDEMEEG

`C=CC1C[C@]1(NC(=O)[C@@H]1C[C@@H](OC(=O)Nc2ccccc2-c2ccccc2)CN1C(=O)[C@@H](NC(=O)OC(C)(C)C)C(C)(C)C)C(=O)NS(=O)(=O)C1CC1` (stereo partly drawn) [Compound 8, BocNH-P3(t-BuGly)-P2(Hyp(O—CO(NH-biphen-2-yl)))-P1(1R,2S VinylAcca)—CONHSO2Cyclopropane] showed an IC50 (NS3/4A BMS strain) of 51 nM, an IC50 (NS3/4A H77C strain) of 11 nM and an IC50 [1] greater than 100000 nM. The IC50 (NS3/4A J4L6S strain) was 9.5 nM.
